Assay results reported in US20100029683A1, “Methods for regulating cell mitosis by inhibiting serine/threonine phosphateses” (priority 2008, published 2010).

Tests used:
U373 cells [1] = experiment: Cell cycle distribution of U373 cells by FACS after 48 hours; type: cell-based, human; conditions: U373, 48 hours
Procedure: (§1) Cells in unsynchronized logarithmic growth were exposed to vehicle or drug and adherent cells and cells in the media were collected. Harvested cells were fixed with 70% cold ethanol for 20 min at −20 degrees, washed with PBS, and stained with 10 ug/ml of PI and 1 ug/ml RNAse in TBS for 30 minutes and analyzed by FACS. A, Flow cytometry profiles of U87 cells after exposures to DMSO only, compound 102 only, 5 uM; TMZ only, 25 uM; compound 102 with TMZ combination, doxorubicin only, 2.0 uM and compound 102 with doxorubicin combination. B, Flow cytometry profiles of U373 cells.
(§2) We analyzed cell cycle patterns of U87MG and U373 cells 48 hours after exposure to TMZ or DOX alone and in combination with compound 102.

[2] = Solubility character of lead compounds; type: physicochemical
PP1 = PP1 (Homo sapiens, UniProt P62136); experiment: Inhibition of purified PP1 (Ser/Thr Phosphatase Assay Kit 1); type: biochemical
From the text: (§3) Inhibition of PP2A and PP1 activity by compound 102 on purified PP1 and PP2A (mean and s.d.; n=3) (Ser/Thr Phosphatase Assay Kit 1, Millipore, Billerica, Mass.)

PP2A [3] = molecular target: PP2A (Homo sapiens, UniProt P67775); experiment: Inhibition of purified PP2A (Ser/Thr Phosphatase Assay Kit 1); type: biochemical
From the text: as §3

PP2A [4] = experiment: PP2A activity in U87 s.c. xenografts and normal brain of SCID mice after i.p. injection; type: in vivo; conditions: single dose 1.5 mg/kg i.p.
Procedure: PP2A activity in U87 s.c. xenografts (blue) and in normal brain tissue (yellow) of SCID mice at different times after i.p. injection of 1.5 mg/kg compound 102 (one mouse per point; each lysate was measured in triplicate: mean and s.d.)

U87 cells [5] = experiment: U87 cell growth in vitro, viable cell count; type: cell-based, human; conditions: U87 cells (FIG. 6), read-out: IC50, inhibition of GBM cell growth
Procedure: FIG. 6: Effect of compound 102 on U87 cells in vitro at 1 uM; 2 uM; 5 uM; and 10 uM.
Viable cells were counted (mean and s.d.; n=3; Coulter particle counter).

NB xenografts = experiment: Histologic examination of xenografts 24 hours after a single i.p. injection; type: in vivo, SCID mice; conditions: 24 hours after single i.p. injection
U87 cells [6] = experiment: Immunofluorescence staining of p53; type: cell-based, human; conditions: 24 hour exposure, compound 102 2.5 uM, TMZ 25 uM
[7] = tested on: DAOY medulloblastoma cells; experiment: DAOY medulloblastoma s.c. xenografts in SCID mice; type: in vivo; conditions: treatment from day 6, measured to day 23
Procedure: DAOY medulloblastoma cells were implanted subcutaneously into the flanks of SCID mice. On day 6, mice were divided into 3 groups, one group receiving Compound 100, one group receiving Compound 102, and one group receiving vehicle alone. The subcutaneous tumor masses were measured on day 6, day 13, day 18, and on day 23 when all animals were sacrificed. […] In this model DAOY cells, when untreated, reached their maximum growth about 2 weeks after implantation with slow regression thereafterwards.

U87MG = experiment: Western blots of pAkt, p53 and MDM2 in U87MG cells after 24 hours; type: cell-based, human; conditions: compound 102 2.5 uM, TMZ 25 uM, DOX 2 uM
Procedure: (§4) 5×10^6 U87MG cells were inoculated s.c. into each flank of 20 SCID mice. When the xenografts were 0.5±0.1 cm (day 0), 5 animals each received i.p. vehicle alone days 1-12 (50% DMSO/H2O); compound 102 alone at 1.5 mg/kg days 1-3,5-7, & 9-11; TMZ alone at 80 mg/kg days 4, 8, 12; or both drugs at the same doses and schedules. If xenografts reached 1800 mm^3, animals were sacrificed. […] B, Survival curve combining the data from the study shown in FIG. 12A, with a second identical study involving a total of 10 animals with two xenografts each. Disease-free survival was defined as no recurrence of either xenografts. […] As in 12A, except that xenografts of SH-SY5Y cells were implanted in one flank only and animals were treated with one additional cycle of drugs, i.e., compound 102 on days 13-15, TMZ, on day 16, and compound 102 plus TMZ on the same schedules. […] E, Western blots of U87 cells in culture 24 hours after exposure to compound 102 at 2.5 uM, TMZ at 25 uM or DOX at 2 uM, and compound 102 plus TMZ or DOX. F, Western blots of U373 cells 24 hours after exposure to compound 102 at 2.5 uM, doxorubicin at 2 uM, and both drugs. G, Western blots of U373 cells 24 hours after exposure to TMZ at 25 uM, okadaic acid at 2 nM, and both drugs.
The effects of compound 102, TMZ, doxorubicin (DOX), a widely used anti-cancer drug that disrupts DNA replication, compound 102 plus TMZ, and compound 102 plus DOX on the amount of pAkt, p53 and MDM2 in U87MG, a cell line with wild-type p53, and in U373, a cell line with mutant p53 (Short et al, 2007) were assessed by Western blots.

U87MG cells [8] = experiment: Cell cycle distribution of U87MG cells by FACS after 48 hours; type: cell-based, human
Procedure: as §1, §2

U87MG xenografts = experiment: U87MG s.c. xenografts in SCID mice, compound 102 with TMZ; type: in vivo
Procedure: as §4
To determine the impact of altering DNA-damage defense mechanisms by inhibiting PP2A on the efficacy of cytotoxic chemotherapy, the effects of compound 102 combined with TMZ, a non-specific DNA-methylating drug, routinely used for the palliative treatment of GBM patients (Prados et al, 2008), were studied. SCID mice bearing s.c. xenografts of either the GBM line U87MG or the neuroblastoma line SH-SY5Y were treated with vehicle alone, compound 102 alone, TMZ alone, or both drugs at the same doses and schedules as when given alone.

SH-SY5Y xenografts = experiment: SH-SY5Y neuroblastoma s.c. xenografts in SCID mice, compound 102 with TMZ; type: in vivo; conditions: as U87MG study plus one additional cycle of drugs; followed 7 weeks
Procedure: 5×10^6 U87MG cells were inoculated s.c. into each flank of 20 SCID mice. When the xenografts were 0.5±0.1 cm (day 0), 5 animals each received i.p. vehicle alone days 1-12 (50% DMSO/H2O); compound 102 alone at 1.5 mg/kg days 1-3,5-7, & 9-11; TMZ alone at 80 mg/kg days 4, 8, 12; or both drugs at the same doses and schedules. If xenografts reached 1800 mm^3, animals were sacrificed. […] B, Survival curve combining the data from the study shown in FIG. 12A, with a second identical study involving a total of 10 animals with two xenografts each. Disease-free survival was defined as no recurrence of either xenografts. […] As in 12A, except that xenografts of SH-SY5Y cells were implanted in one flank only and animals were treated with one additional cycle of drugs, i.e., compound 102 on days 13-15, TMZ, on day 16, and compound 102 plus TMZ on the same schedules. […] E, Western blots of U87 cells in culture 24 hours after exposure to compound 102 at 2.5 uM, TMZ at 25 uM or DOX at 2 uM, and compound 102 plus TMZ or DOX. F, Western blots of U373 cells 24 hours after exposure to compound 102 at 2.5 uM, doxorubicin at 2 uM, and both drugs. G, Western blots of U373 cells 24 hours after exposure to TMZ at 25 uM, okadaic acid at 2 nM, and both drugs. […]

U87MG cells [9] = experiment: Cellular and molecular changes in U87MG cells (immunofluorescence, Western blots); type: cell-based, human; conditions: 2.5 uM
Procedure: FIG. 11A-G: Cellular and molecular changes in U87 cells induced by compound 102 at 2.5 uM after 24 hour exposure (A-D, F, G) and after 3 hours ([…]).
A, Nuclear changes in U87 cells in unsynchronized logarithmic growth (upper panel, green immunofluorescence [IFS] GFP labeled-actin α and lower panel, blue DAPI staining). Numerous irregular nuclei with clumped chromatin in compound 102 treated cells are indicated by arrows. B, Disordered microtubules (green IFS tubulin-α and red IFS pPlk-1-Tre 210) and irregular clumped chromatin (blue DAPI) C, Western blots of U87 lysates: pAkt-1, total Akt-1, and β-actin. D, Western blots of U87 lysates: TCTP, pPlk (Tre-210), total Plk, and β-actin. E, IFS of TCTP in U87 cells, F, Western blots p53 (ser-15), pMDM2 (ser-166), and β-actin and G, IFS of p53 (ser-15).
TCTP is an abundant, highly conserved, multifunctional protein that binds to and stabilizes microtubules before and after mitosis and also exerts potent anti-apoptotic activity (Bommer and Thiele, 2004; Yarm, 2002; Susini et al, 2008) (FIG. 11E).

U373 = experiment: Inhibition of U373 glioblastoma cells after 7 days in culture, alone and in combination; type: cell-based, human; conditions: Compound 100 2.5 μM, cisplatin 0.1 μM, doxorubicin 0.01 μM, taxol 0.3 nM, each alone
Procedure: Cells were exposed to vehicle alone (control); Compound 100 at 2.5 uM; cisplatin at 0.1 uM; doxorubicin at 0.01 uM; or taxol at 0.3 nM alone or to the combination of Compound 100 plus each of the standard agents at the same concentrations. […] The expected percent inhibition at 7 days is the product of the inhibition by each agent alone.
Cells were exposed to vehicle alone (control); compound 100 at 2.5 μM, cisplatin at 0.1 μM; doxorubicin at 0.01 μM; or taxol at 0.3 nM alone or to the combination of compound 100 plus each of the standard agents at the same concentrations. […] The expected percent inhibition from a combination of drugs is calculated by multiplying the actual percent inhibition by each drug alone and comparing that product to the actual percent inhibition caused by the combination of the two drugs (Valeriote, 1975). The expected percent inhibition at 7 days is the product of the inhibition by each agent alone.

U373 cells [10] = experiment: Western blots of pAkt-1, p53 and MDM2 in U373 cells after 24 hours; type: cell-based, human; conditions: U373, 2 nM
Procedure: as §4

PP1, sequence (P62136 whole entry): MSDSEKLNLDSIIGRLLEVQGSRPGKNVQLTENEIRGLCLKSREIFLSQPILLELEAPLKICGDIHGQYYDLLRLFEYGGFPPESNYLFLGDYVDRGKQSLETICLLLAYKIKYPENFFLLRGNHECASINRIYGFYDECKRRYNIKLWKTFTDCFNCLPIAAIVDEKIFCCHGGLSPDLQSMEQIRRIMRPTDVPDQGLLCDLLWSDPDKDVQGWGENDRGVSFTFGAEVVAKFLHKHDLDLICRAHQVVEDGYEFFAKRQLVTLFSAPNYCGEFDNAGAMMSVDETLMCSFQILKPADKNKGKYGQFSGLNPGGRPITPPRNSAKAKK
PP2A (Homo sapiens, UniProt P67775), sequence (P67775 whole entry): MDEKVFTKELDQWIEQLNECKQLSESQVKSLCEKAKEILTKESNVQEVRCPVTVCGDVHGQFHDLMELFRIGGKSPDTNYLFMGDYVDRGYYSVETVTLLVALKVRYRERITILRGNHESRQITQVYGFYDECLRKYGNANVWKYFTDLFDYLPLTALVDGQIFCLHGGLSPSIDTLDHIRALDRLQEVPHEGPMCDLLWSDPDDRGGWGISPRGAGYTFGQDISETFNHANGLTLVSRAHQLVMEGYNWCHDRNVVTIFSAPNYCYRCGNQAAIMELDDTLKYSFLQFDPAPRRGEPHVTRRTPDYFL

CC(C)(C)OC(=O)N1CCN(C(=O)C2C(C(=O)O)[C@H]3CC[C@@H]2O3)CC1 (stereo partly shown) [Compound 102]
cell cycle profile (U373 cells [1]): no effect on this profile | solubility character [2]: lipid soluble | IC50 (PP1): ~80 µM | IC50 (PP2A [3]): ~0.4 µM | PP2A activity in normal brain tissue (PP2A [4]): inhibits PP2A activity | PP2A activity in s.c. xenografts of U87 MG (PP2A [4]): inhibits PP2A activity | IC50 (U87 cells [5]): ~4 µM | cells with decreased cell size / small pyknotic nuclei (NB xenografts): ~50% | intracellular levels of p53 by immunofluorescence (U87 cells [6]): reduction of intracellular levels of p53 | DAOY s.c. tumor mass [7]: marked regression of the tumor by day 23 | MDM2 on Western blot (U87MG): increased both pAkt-1 and MDM2 | p53 on Western blot (U87MG): eliminated p53 | pAkt-1 on Western blot (U87MG): increased both pAkt-1 and MDM2 | G1 phase cells (U87MG cells [8]): decreased G1 | G2/M phase cells (U87MG cells [8]): prominently increased G2/M | S phase cells (U87MG cells [8]): modestly increased S | time of sacrifice (xenografts reached 1800 mm^3) (U87MG xenografts; U87 xenografts, for the combination only the 3 mice with recurrence): 4-5 week | growth of GBM (U87MG) xenografts (U87MG xenografts; compound 102 1.5 mg/kg i.p. days 1-3, 5-7, 9-11, TMZ 80 mg/kg days 4, 8, 12): minimally delayed growth | GBM xenografts: animals with complete regression without recurrence (U87MG xenografts; compound 102 combined with temozolomide, greater than 28 weeks): 50% | growth of NB (SH-SY5Y) xenografts (SH-SY5Y xenografts): completely suppressed growth for 2 weeks | p53 abundance (U87MG cells [9]): decreased the abundance of p53 | phosphorylated MDM2 (U87MG cells [9]): increased phosphorylated MDM2 | TCTP abundance (U87MG cells [9]; 24 hour exposure): marked decrease in translationally controlled tumor protein | microtubule and mitotic morphology (mitotic catastrophe) (U87MG cells [9]; 24 hour exposure): appearance of disordered microtubules and abnormal mitotic figures | phosphorylated Akt-1 (U87MG cells [9]; 24 hour exposure): increased phosphorylated Akt-1 | phosphorylated Plk-1 (U87MG cells [9]; 24 hour exposure): increased phosphorylated Plk-1

COc1cccc2c1C(=O)c1c(O)c3c(c(O)c1C2=O)C[C@@](O)(C(=O)CO)C[C@@H]3O[C@H]1C[C@H](N)[C@H](O)[C@H](C)O1 [DOX, doxorubicin]
G1 phase cells (U373 cells [1]): reduced G1 and G2/M | G2/M phase cells (U373 cells [1]): reduced G1 and G2/M | S phase cells (U373 cells [1]): greatly increased S | inhibition at 7 days, agent alone (U373): 75.7% | MDM2 on Western blot (U87MG): little effect on MDM2 | p53 on Western blot (U87MG): increased p53 | pAkt-1 on Western blot (U87MG): decreased pAkt-1

C=C1[C@@H](O)[C@@H]2O[C@]3(CC[C@H](/C=C/[C@@H](C)[C@@H]4CC(C)=C[C@@]5(O[C@H](C[C@@](C)(O)C(=O)O)CC[C@H]5O)O4)O3)CC[C@H]2O[C@@H]1[C@@H](O)C[C@H](C)[C@H]1O[C@@]2(CCCCO2)CC[C@H]1C [Okadaic acid, okadaic acid]
effects on pAkt-1 and mutant p53 (U373 cells [10]): mimicked the effects of compound 102 on pAkt-1 and on mutant p53

Cn1nnc2c(C(N)=O)ncn2c1=O [TMZ, temozolomide, reference compound]
cells with cytoplasmic swelling and vacuolization (NB xenografts): ~50%

CC(=O)O[C@H]1C(=O)[C@@]2(C)[C@H]([C@H](OC(=O)c3ccccc3)[C@]3(O)C[C@H](OC(=O)[C@H](O)[C@@H](NC(=O)c4ccccc4)c4ccccc4)C(C)=C1C3(C)C)[C@]1(OC(C)=O)CO[C@@H]1C[C@@H]2O [Taxol]
inhibition at 7 days, agent alone (U373): 114%

N.N.[Cl][Pt][Cl] [cisplatin]
inhibition at 7 days, agent alone (U373): 93.5%
